Experimental data as given in patent US20130287688A1, “NOVEL COMPOSITIONS AND USES OF ANTI-HYPERTENSION AGENTS FOR CANCER THERAPY” (XTUIT PHARMACEUTICALS, INC., priority 2010, published 2013).

Tests used:
HSTS26T tumors [1] = test: In vivo proliferation (Ki67 staining); design: species or system mice; conditions: after losartan treatment
From the text: (§1) Tumors were resected and stained for Ki67 to assess proliferation rates. […] There was however a significant difference in proliferation between the two tumor types, the number of Ki67 positive cells was 3 fold higher in HSTS26T tumors.
(§2) Ki67 staining was done on paraffin sections 21 days after HSV injection. Slides were microwave processed with Target Retrieval Solution (DAKO, Carpinteria, Calif.) prior to primary antibody detection. The entire tumor section was imaged at 2× magnification and reconstituted as a mosaic. Twenty regions were randomly selected in each tumor. The fraction of Ki67 positive cells in each region was determined by manual count.

Mu89 tumors [2] = test: In vivo proliferation (Ki67 staining); design: species or system mice; conditions: after losartan treatment
From the text: as §1, §2

HSTS26T tumors [3] = test: Virus treatment and tumor growth delay; format: in vivo, SCID mice
Description: (§3) Each arm (control and treated) was subsequently divided into HSV treated and non-HSV treated groups. Tumors that had reached 60 mm^3 after two weeks were selected for i.t. HSV injections. Tumors were treated with 10 μl i.t. injections of either PBS or 2.5×10^5 transducing units (t.u.) of oncolytic HSV MGH2 (gift from E. Antonio Chiocca, Ohio State University, Columbus, Ohio). Two i.t. injections of oncolytic HSV separated by 24 hrs were administered. The injections were done with a Harvard Apparatus Standard Pump 22 infusion/withdraw syringe pump system (Holliston, Mass.) at a flow rate of 4 μl/min. Tumors were measured every 2 to 3 days. Tumor volume was estimated as: V=AB^2/2, where V is the tumor volume; A and B are the maximum and minimum diameters of the tumor as measured with calipers.

Mu89 tumors [4] = test: Virus treatment and tumor growth delay; format: in vivo, SCID mice
Description: as §3

E0771 tumors = test: Solid stress (tumor opening technique); design: species or system mice; conditions: mouse, in vivo
Description: Solid stress was assessed using an ex vivo technique involving the measurement of the extent of tumor tissue relaxation (tumor opening relative to tumor diameter) following a stress-releasing incision, with larger openings indicating higher stress.
When the tumors reached a size of −1 cm in diameter, the mice were anesthetized. Subsequently, each tumor was excised, washed with Hanks' Balanced Salt Solution (HBSS) and its three dimensions were measured. Each tumor was cut along its longest axis, to a depth of 80% of its shortest dimension, using a scalpel. The tumors were allowed to relax for 10 minutes in HBSS to diminish any transient, poro-elastic responses. Afterwards, the opening resulting from the cut was measured at the middle of the cut at the surface of the tumor. Solid stress is proportional to the size of the opening relative to the size of the dimension perpendicular to the cut.

HSTS26T tumors [5] = test: Vascular density in tumors; conditions: in vivo
E0771 breast tumors [6] = test: Interstitial hydraulic conductivity of excised tumor tissue; format: in vivo, mice; conditions: 40 mg/kg i.p. daily, 6 days
Description: FIG. 31 is a bar graph showing that angiotensin inhibitors increase fluid flow in tumors. Interstitial hydraulic conductivity was measured by the flow rate of media through freshly excised tumor tissue. […] Animal number n=6.
Oxygenation was then studied using phosphorescence quenching microscopy. […] This decrease in tumor hypoxia was confirmed by using pimonidazole staining (FIGS. 29D and 30). To determine if losartan also increases nanomedicine delivery, which is dependent on both vascular supply and penetration across vessel walls into tumor tissue, nanoparticle penetration was measured using intravital multiphoton microscopy. Nanoparticle penetration rates were quantified as transvascular mass flux per unit vascular surface area and transvascular concentration difference, termed as the effective permeability. […] Penetration rates are largely dependent on fluid flow through the viscoelastic and tortuous tumor interstitium, which is a function of interstitial hydraulic conductivity. It was determined that losartan also increases the hydraulic conductivity of E0771 tumors (FIG. 31), likely through its anti-matrix effects, and a mathematical model (Chauhan V P, et al., Nature Nanotechnology. 2012; advance online publication) was used to confirm that this can improve the penetration rate of all sizes of nanomedicines (FIG. 32). […]

[7] = Losartan bioanalysis: plasma and tumor levels (HPLC/FLU); conditions: male, FVB, mouse, subcutaneous
[8] = system: carcinoma associated fibroblasts (CAFs); conditions: losartan 10 μmol/L, 24 hrs
Description: Protein assays were done with commercial ELISA kits.
CAFs were plated in 24 well plates at a concentration of 500K cells/well. […] Treatment was done in low serum to reduce background collagen levels. Conditioned medium was collected at the end of the 24-hr treatment period and analyzed for collagen levels.
Collagen I measurements were done with a type I C-terminal collagen propetide Enzyme Linked Immunosorbent Assay (ELISA) kit (Quidel, San Diego, Calif.) and the Sircol soluble collagen assay (Biocolor Ltd., United Kingdom). TGF-β1 assays were performed with a human TGF-β1 ELISA kit (R&D Systems, Minneapolis, Minn.). The assay only measures the free-form of mature TGF-β1. To measure total levels of TGF-β1 the latent form of TGF-β1 was activated with 1N HCl.

E0771 breast tumors [9] = test: Vessel perfusion histology (lectin / CD31); format: in vivo, SCID mouse; conditions: 40 mg/kg
[10] = losartan two weeks before i.t. injection of HSV

Q: With `CCCCc1nc(Cl)c(CO)n1Cc1ccc(-c2ccccc2-c2nn[nH]n2)cc1` [losartan] as the molecule, how does the “positive Ki67 staining” value (HSTS26T tumors [1]) read?
A: The value was “no statistically significant difference”.

Q: What about the “positive Ki67 staining” value (Mu89 tumors [2]) of the same molecule?
A: Its value is “no statistically significant difference”.

Q: What about the tumor growth rate (HSTS26T tumors [3]; losartan alone) of the same molecule?
A: Its tumor growth rate is “did not affect”.

Q: And the “mice whose tumor volume remained stable for up to 9 weeks” value (HSTS26T tumors [3]; losartan and HSV)?
A: The value was 50%.

Q: And the tumor growth (HSTS26T tumors [3]; [10])?
A: Its tumor growth is “significantly delayed the growth”.

Q: What about the tumor growth rate (Mu89 tumors [4]; losartan alone) of the same molecule?
A: Its tumor growth rate is “did not affect”.

Q: What about the “tumor size relative to the starting treatment size” value (Mu89 tumors [4]; losartan and HSV, 4 weeks after the virus injection, all tumors) of the same molecule?
A: The value was 3 fold.

Q: What about the tumor growth (Mu89 tumors [4]; [10]) of the same molecule?
A: Its tumor growth is “significantly delayed the growth”.

Q: And the solid stress (E0771 tumors)?
A: Its solid stress is “reduces solid stress”.

Q: What about the “tumor growth or vascular density” value (HSTS26T tumors [5]) of the same molecule?
A: Its value is “did not affect”.

Q: What about the interstitial hydraulic conductivity (E0771 breast tumors [6]) of the same molecule?
A: Its interstitial hydraulic conductivity is “large increase”.

Q: And the concentration at 2 h ([7]; plasma, 40 mg/kg, Plasma 2 hr level, Day 14, Group 3: losartan subcutaneous injection without pump 40 mg/kg daily)?
A: The concentration at 2 h was 423 ng/mL.

Q: And the concentration at 2 h ([7]; plasma, 40 mg/kg, Plasma 2 hr level, Day 19, Group 3: losartan subcutaneous injection without pump 40 mg/kg daily)?
A: The concentration at 2 h was 152 ng/mL.

Q: And the concentration at 6 h ([7]; plasma, 40 mg/kg, Plasma 6 hr level, Day 14, Group 3: losartan subcutaneous injection without pump 40 mg/kg daily)?
A: The concentration at 6 h was 11 ng/mL.

Q: What about the concentration at 6 h ([7]; plasma, 40 mg/kg, Plasma 6 hr level, Day 19, Group 3: losartan subcutaneous injection without pump 40 mg/kg daily) of the same molecule?
A: Its concentration at 6 h is 28 ng/mL.

Q: What about the concentration at 2 h ([7]; plasma, 40 mg/kg/day, Plasma 2 hr level, Day 14, Group 2: losartan via subcutaneous pump 40 mg/kg/day) of the same molecule?
A: The concentration at 2 h was 227 ng/mL.

Q: And the concentration at 2 h ([7]; plasma, 40 mg/kg/day, Plasma 2 hr level, Day 19, Group 2: losartan via subcutaneous pump 40 mg/kg/day)?
A: The concentration at 2 h was 370 ng/mL.

Q: What about the concentration at 6 h ([7]; plasma, 40 mg/kg/day, Plasma 6 hr level, Day 14, Group 2: losartan via subcutaneous pump 40 mg/kg/day) of the same molecule?
A: Its concentration at 6 h is 304 ng/mL.

Q: What about the concentration at 6 h ([7]; plasma, 40 mg/kg/day, Plasma 6 hr level, Day 19, Group 2: losartan via subcutaneous pump 40 mg/kg/day) of the same molecule?
A: Its concentration at 6 h is 376 ng/mL.

Q: And the concentration at 2 h ([7]; tumor, 40 mg/kg, Tumor 2 hr level, Day 14, Group 3: losartan subcutaneous injection without pump 40 mg/kg daily)?
A: The concentration at 2 h was 163 ng/mL.

Q: And the concentration at 2 h ([7]; tumor, 40 mg/kg, Tumor 2 hr level, Day 19, Group 3: losartan subcutaneous injection without pump 40 mg/kg daily)?
A: The concentration at 2 h was 41 ng/mL.

Q: And the concentration at 6 h ([7]; tumor, 40 mg/kg, Tumor 6 hr level, Day 14, Group 3: losartan subcutaneous injection without pump 40 mg/kg daily)?
A: The concentration at 6 h was 21 ng/mL.

Q: What about the concentration at 6 h ([7]; tumor, 40 mg/kg, Tumor 6 hr level, Day 19, Group 3: losartan subcutaneous injection without pump 40 mg/kg daily) of the same molecule?
A: Its concentration at 6 h is 54 ng/mL.

Q: What about the concentration at 2 h ([7]; tumor, 40 mg/kg/day, Tumor 2 hr level, Day 14, Group 2: losartan via subcutaneous pump 40 mg/kg/day) of the same molecule?
A: Its concentration at 2 h is 50 ng/mL.

Q: What about the concentration at 2 h ([7]; tumor, 40 mg/kg/day, Tumor 2 hr level, Day 19, Group 2: losartan via subcutaneous pump 40 mg/kg/day) of the same molecule?
A: Its concentration at 2 h is 56.1 ng/mL.

Q: What about the concentration at 6 h ([7]; tumor, 40 mg/kg/day, Tumor 6 hr level, Day 14, Group 2: losartan via subcutaneous pump 40 mg/kg/day) of the same molecule?
A: The concentration at 6 h was 57 ng/mL.

Q: And the concentration at 6 h ([7]; tumor, 40 mg/kg/day, Tumor 6 hr level, Day 19, Group 2: losartan via subcutaneous pump 40 mg/kg/day)?
A: The concentration at 6 h was 66 ng/mL.

Q: And the “decrease in collagen I levels” value [8]?
A: The value was 27%.

Q: What about the “reduction of active-TGF-β1 levels” value [8] of the same molecule?
A: Its value is 90%.

Q: What about the “total TGF-β1 levels” value [8] of the same molecule?
A: Its value is “unaffected”.

Q: What about the “CD31+ vessel density” value (E0771 breast tumors [9]) of the same molecule?
A: Its value is “did not affect”.

Q: What about the vessel diameters (E0771 breast tumors [9]) of the same molecule?
A: The vessel diameters was “increased”.
